Measurements as given in ChEMBL document CHEMBL1201862, “PubChem BioAssay data set” (2004).
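All cell lines were grown in 96-well plates and treated with compound for 48 hours. Here, GI50 denotes the concentration required for 50% inhibition of growth.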 Calls of active or inactive are those of the source. Rule as the data show it: active = GI50 up to about 1.1 µM and inactive = higher.

Key:
Test in all cases: inhibition of tumour cell growth, NCI panel, 48 h
[1] = system: DU-145
[2] = system: Malme-3M
[3] = system: MCF7
[4] = system: SF-268
[5] = system: SNB-75
[6] = system: UACC-62
[7] = system: KM12
[8] = system: OVCAR-5
[9] = system: COLO 205
[10] = system: MOLT-4
[11] = system: SK-MEL-5
[12] = system: 786-0
[13] = system: MDA-N
[14] = system: UACC-257
[15] = system: PC-3
[16] = system: CAKI-1
[17] = system: HCC 2998
[18] = system: HL-60

Measured: GI50

COc1cc(OC)c(OC)cc1/C=N/N=C(\N)NO
inactive: [1] > 100 µM | [2] > 100 µM | [3] > 100 µM | [4] > 100 µM | [5] 21.9 µM | [6] > 100 µM | [7] 18.5 µM | [8] > 100 µM | [9] 80 µM | [10] > 100 µM | [11] > 100 µM | [12] > 100 µM | [13] > 100 µM | [14] > 100 µM | [15] > 100 µM | [16] > 100 µM | [17] > 100 µM | [18] 83.9 µM

CC1=NC(C)(C)N(O)C1(C)C
inactive: [1] > 100 µM | [2] > 100 µM | [3] > 100 µM | [4] > 100 µM | [5] > 100 µM | [6] > 100 µM | [7] > 100 µM | [8] > 100 µM | [9] > 100 µM | [10] > 100 µM | [11] > 100 µM | [12] > 100 µM | [13] > 100 µM | [15] > 100 µM | [17] > 100 µM | [18] > 100 µM

OC1(CCc2ccccc2)COC(C(F)(F)F)(C(F)(F)F)C1 (configuration not stated)
inactive: [1] > 100 µM | [2] > 100 µM | [3] > 100 µM | [4] > 100 µM | [5] > 100 µM | [6] > 100 µM | [7] > 100 µM | [8] > 100 µM | [9] > 100 µM | [10] > 100 µM | [11] > 100 µM | [12] > 100 µM | [13] > 100 µM | [15] > 100 µM | [16] > 100 µM | [17] > 100 µM | [18] > 100 µM

CC(=O)c1ccc2c(c1)CC1(C2)Cc2cc3c(cc2C1=O)CCC3 (configuration not stated)
inactive: [1] 24.3 µM | [2] 13.3 µM | [3] 20.8 µM | [4] 28.9 µM | [5] 15.6 µM | [7] 17.5 µM | [8] 30.6 µM | [9] 14.9 µM | [10] 4.28 µM | [11] 10.3 µM | [12] 19.3 µM | [13] 14.4 µM | [14] 15 µM | [15] 19.2 µM | [16] 12.9 µM | [17] 18.6 µM | [18] 14.3 µM

COc1cc(OC)c2c(C)cc(=O)oc2c1
inactive: [1] 52.7 µM | [2] 53 µM | [3] 85.9 µM | [4] 47.9 µM | [5] 25.9 µM | [6] 96.4 µM | [7] 54.2 µM | [8] > 100 µM | [9] 54.1 µM | [10] 82.6 µM | [11] > 100 µM | [12] 52.6 µM | [13] > 100 µM | [14] 93.8 µM | [15] > 100 µM

CC(=O)OCC1OC(n2c3c(c(-c4ccc(Cl)cc4)c(C#N)c2=S)CCCC3)C(OC(C)=O)C(OC(C)=O)C1OC(C)=O (configuration not stated)
inactive: [1] 42.6 µM | [2] 56.8 µM | [3] > 100 µM | [4] 96.6 µM | [5] 15.3 µM | [6] 23.3 µM | [7] 71.4 µM | [8] > 100 µM | [9] 35.2 µM | [10] 25.1 µM | [11] 16.7 µM | [12] 80.7 µM | [13] 42.8 µM | [14] 51.9 µM | [15] 25.5 µM | [17] > 100 µM | [18] 64.9 µM

COC(=O)C(C)(C)[C@@H]1OC(=O)N(S(=O)(=O)c2c(C)cc(C)cc2C)[C@H]1C(C)C
inactive: [1] > 100 µM | [2] > 100 µM | [3] 75.9 µM | [4] > 100 µM | [5] 41 µM | [6] > 100 µM | [7] 91.4 µM | [8] > 100 µM | [9] 27 µM | [10] 40 µM | [11] 41.8 µM | [12] > 100 µM | [13] > 100 µM | [14] 60.3 µM | [15] 32.7 µM | [17] > 100 µM | [18] 23.6 µM

CCCCCCCCOCC1S(=O)(=O)OCCOS1(=O)=O
inactive: [1] > 100 µM | [2] > 100 µM | [4] > 100 µM | [5] > 100 µM | [6] > 100 µM | [8] > 100 µM | [9] > 100 µM | [10] > 100 µM | [11] > 100 µM | [12] > 100 µM | [13] > 100 µM | [14] > 100 µM | [15] > 100 µM | [16] > 100 µM | [17] > 100 µM | [18] > 100 µM

CC(C)(C)OC(=O)N[C@H]1CCN(C2CCCCC2)C1=O
inactive: [1] > 100 µM | [3] > 100 µM | [4] > 100 µM | [5] > 100 µM | [6] > 100 µM | [8] > 100 µM | [9] > 100 µM | [10] > 100 µM | [11] > 100 µM | [12] > 100 µM | [13] > 100 µM | [15] > 100 µM | [17] > 100 µM | [18] > 100 µM
